The values that follow come from the NIST ThermoML archive (doi:10.1016/j.jct.2005.09.004).

Molecules are shown by their SMILES. ± gives the expanded uncertainty stated by the source.

For data set [1] the following is noted: for surface tension liquid-gas: Drop volume; for mass density: 101.33 kPa, Liquid.
Data set [2] in a line: refractive index (Na D-line) (dimensionless). The settings on record: 101.33 kPa, Liquid, Standard Abbe refractometry.

In the case of `C1CCCC1` [cyclopentane], the surface tension liquid-gas is listed as 24.14 ± 0.3 mN/m in data set [1] (283.15 K), 22.06 ± 0.28 mN/m in data set [1] (298.15 K) and 19.76 ± 0.25 mN/m in data set [1] (313.15 K). For the same compound, the mass density in data set [1] (283.15 K) worked out at 754.85 ± 0.77 kg/m3; in data set [1] (298.15 K), 739.74 ± 0.79 kg/m3; in data set [1] (313.15 K) it was 724.71 ± 0.81 kg/m3. Further, the refractive index in data set [2] (283.15 K) is 1.41197 ± 0.00037; in data set [2] (298.15 K) it was 1.40335 ± 0.00037; in data set [2] (313.15 K) it was 1.39451 ± 0.00037.

As to `C1CCCCC1` [cyclohexane], the surface tension liquid-gas came to 26.28 ± 0.3 mN/m in data set [1] (283.15 K), 24.73 ± 0.28 mN/m in data set [1] (298.15 K) and 22.93 ± 0.26 mN/m in data set [1] (313.15 K). In addition, the results for the mass density in data set [1] (283.15 K), in data set [1] (298.15 K) and in data set [1] (313.15 K) were 787.97 ± 0.3 kg/m3, 773.65 ± 0.32 kg/m3 and 759.59 ± 0.33 kg/m3, respectively. The refractive index in data set [2] (283.15 K) worked out at 1.43182 ± 0.00031; in data set [2] (298.15 K), 1.42348 ± 0.00031; in data set [2] (313.15 K) it was 1.41498 ± 0.00031.

As for `C1COCCO1` [1,4-dioxane], the surface tension liquid-gas in data set [1] (283.15 K) is 35.09 ± 0.39 mN/m; in data set [1] (298.15 K), 33.23 ± 0.37 mN/m; in data set [1] (313.15 K), 31.23 ± 0.35 mN/m. The mass density in data set [1] (283.15 K) was determined as 1045.16 ± 0.14 kg/m3; in data set [1] (298.15 K), 1027.85 ± 0.12 kg/m3; in data set [1] (313.15 K), 1010.99 ± 0.11 kg/m3. Moreover, the figures for the refractive index in data set [2] (283.15 K), in data set [2] (298.15 K) and in data set [2] (313.15 K) were 1.42721 ± 0.00031, 1.41992 ± 0.00031 and 1.41256 ± 0.00031, respectively.
